The values that follow are results of earlier work, collected in patent publication US4756910A, “Adriamycin-entrapping liposome preparation” (priority 1985, dated 1988).

Each structure is given as a SMILES string.

For `COc1cccc2c1C(=O)c1c(O)c3c(c(O)c1C2=O)C[C@@](O)(C(=O)CO)C[C@@H]3O[C@H]1C[C@H](N)[C@H](O)[C@H](C)O1` [Free adriamycin, Adriamycin], the “Cardiac toxicity (in words)” value (background statement) is reported as “accumulative cardiac toxicity”. Also, the “Disappearance from the blood (in words)” value (in vivo, iv) is “rapidly disappears from the blood after intravenous administration”.
